Experiments:
[1] = clopidogrel in direct contact with compound of Formula 1; 40° C./RH 75%, four weeks
Description: A test on blending compatibility with additives was performed in a state, in which clopidogrel was alone and mixed with a compound of Formula 1.
A ratio of additives to main component was adjusted, after which a change of contents and related substances was evaluated under accelerated test conditions (40° C./RH 75%) for four weeks, such that the results thereof are shown in FIGS. 3 to 5.

[2] = Evaluation test on pharmacokinetic drug interactions through nonclinical models; assay type: in vivo; settings: beagle dogs; combined administration with clopidogrel
Description: To determine the effect of esomeprazole (PPI drug) and a compound of Formula 1 on a medicinal effect of clopidogrel, a test on pharmacokinetic drug interactions was performed in such a way that 20 mg of clopidogrel and 20 mg of esomeprazole or 50 mg of the compound of Formula 1 were administered in combination into beagle dogs once or repeatedly (for seven days).
Particularly, clopidogrel was repeatedly administered into ten beagle dogs for seven days, after which esomeprazole and the compound of Formula 1 were administered in combination into those beagle dogs at steady-state for seven days, such that blood was collected therefrom on 5th, 8th and 14th days, to perform a pharmacokinetic analysis before and after the administration.
FIGS. 1 and 2 are graphs of showing a concentration of clopidogrel active metabolites in blood, which was measured after administering esomeprazole and the compound of Formula 1 in combination, respectively.

In the case of `COC(=O)[C@H](c1ccccc1Cl)N1CCc2sccc2C1` [clopidogrel, methyl (+)-(S)-α-(2-chlorophenyl)-6,7-dihydrothieno[3,2-c]pyridine-5(4H)-acetate], the “stability of drug (contents and related substances)” value [1] is reported as “stability of a drug deteriorates”.

With `Cc1nc2c(O[C@H]3CCOc4cc(F)cc(F)c43)cc(C(=O)N(C)C)cc2[nH]1` [compound of Formula 1, (S)-4-[(5,7-difluoro-3,4-dihydro-2H-chromene-4-yl)oxy]-N,N,2-trimethyl-1H-benzimidazole-6-carboxamide] the “risk of drug interactions with clopidogrel” value [2] was “low risk of drug interactions”.

Source: patent publication US12128030B2, “Pharmaceutical composition comprising antiplatelet agent and gastric acid secretion inhibitor” (HK INNO.N CORPORATION, priority 2018, dated 2024)
